We go through 38 molecules from patent publication US20230099031A1, “BIFUNCTIONAL AGENTS FOR PROTEIN RECRUITMENT AND/OR DEGRADATION” (Orionis Biosciences, Inc., priority 2019, published 2023).

The target in the experiment is T1, CRBN (Homo sapiens, UniProt Q96SW2).
T1 construct: expressed in transfected cells; host or cells: HEK293T
Nature of the experiment: Competition Assay: MAPPIT-like, competition with trimethoprim-lenalidomide hybrid ligand for binding to CRBN in HEK293T cells. It counts as cell-based. As to conditions: protocol and reagents of Example 1; read-out: IC50 Competition. The text has this:
A bait protein (protein A) is expressed as a fusion protein in which it is genetically fused to an engineered intracellular receptor domain of the leptin receptor, which is itself fused to the extracellular domain of the erythropoietin (Epo) receptor. Binding of Epo ligand to the EpoR component results in activation of receptor-associated intracellular JAK2. However, activated JAK2 cannot activate the leptin receptor to trigger STAT3 binding and its phosphorylation because its tyrosine residues, normally phosphorylated by activated JAK2, have been mutated. Reconstitution of a JAK2 phosphorylatable STAT3 docking site is instead created through interaction of a protein B with protein A, whereby protein B is fused to a cytoplasmic domain of the gp130 receptor (which now harbors appropriate tyrosine resides recognized by the activated JAK2 kinase). Thus, physical interaction of protein A with protein B reconstitutes and Epo triggers JAK2-STAT3 signaling pathway activation. Activation of STAT3 can be monitored by introduction of a STAT3-responsive reporter gene, including a luciferase-encoding gene or a gene encoding a fluorescent marker such as GFP or some other type of fluorescent protein (EGF etc.). In this manner, the MAPPIT assay provides a versatile assay to assess such recombinant protein-protein interactions, or compound- or hybrid ligand-induced protein-protein interactions, in intact cells.
Formation of the complex results in activation of a STAT-responsive luciferase reporter gene. That signal is set to 100% luciferase activity. In a separate sample set up, cells are prepared in the same manner but, in addition, co-incubated with a test compound whose interaction with CRBN is investigated. […] Increasing concentrations of test compound are assessed to determine CRBN binding efficiency as determined in this type of ligand competition experiment in living cells. Specificity of signal inhibition is assessed by a parallel experimental set up in which test compound effect is assessed for inhibition of signal generated by a control gp130 fusion protein (CTRL) that directly binds to the DHFR-fusion protein in the absence of hybrid ligand (i.e. a direct interaction of the proteins).
In more detail, HEK293T cells are cultured in Dulbecco's modified Eagle's medium supplemented with 10% fetal calf serum, incubated at 37° C., 8% CO2. […] Data points represent the average luciferase activity of triplicate samples derived from cells treated with leptin+test compound for the REM2 control (CTRL) or cells treated with leptin+hybrid ligand+test compound (CRBN) relative to leptin (CTRL) or leptin+hybrid ligand (CRBN) only treated samples (the signals obtained in absence of added test compound for both cases is set at 100% of luciferase activity on y-axis). Error bars represent standard deviations. Curves are fit using 4-parameter nonlinear regression in […] PRISM software
One may read the IC50 as the concentration at which inhibition is half-maximal. For `CC1CCCCN1C(=O)CNc1ccc2c(c1)C(=O)N(C1CCC(=O)NC1=O)C2` (centres unmarked) [Compound C12584, 3-[6-[[2-(2-methyl-1-piperidyl)-2-oxo-ethyl]amino]-1-oxo-isoindolin-2-yl]piperidine-2,6-dione], the IC50 was found to be 7.91e-05 µM.

With `CC1CN(C(=O)CNc2ccc3c(c2)C(=O)N(C2CCC(=O)NC2=O)C3)CCO1` (centres unmarked) [Compound C12586, 3-[6-[[2-(2-methylmorpholin-4-yl)-2-oxo-ethyl]amino]-1-oxo-isoindolin-2-yl]piperidine-2,6-dione], the IC50 is 0.383 µM.

Turning to `O=C1CCC(N2Cc3ccc(NCC(=O)N4CC5CC4CO5)cc3C2=O)C(=O)N1` (centres unmarked) [Compound C12589], the IC50 was 10.3 µM.

Turning to `CC1CN(C)CCN1C(=O)CNc1ccc2c(c1)C(=O)N(C1CCC(=O)NC1=O)C2` (centres unmarked) [Compound C12595, 3-[6-[[2-(2,4-dimethylpiperazin-1-yl)-2-oxo-ethyl]amino]-1-oxo-isoindolin-2-yl]piperidine-2,6-dione], the IC50 was 0.208 µM.

As to `CN1CCN(C(=O)CNc2ccc3c(c2)C(=O)N(C2CCC(=O)NC2=O)C3)CC1=O` (centres unmarked) [Compound C12597, 3-[6-[[2-(4-methyl-3-oxo-piperazin-1-yl)-2-oxo-ethyl]amino]-1-oxo-isoindolin-2-yl]piperidine-2,6-dione], the IC50 is 5.5 µM.

For the molecule `CC1CN(C(=O)CNc2ccc3c(c2)C(=O)N(C2CCC(=O)NC2=O)C3)CC(=O)N1` (centres unmarked) [Compound C12598, 3-[6-[[2-(3-methyl-5-oxo-piperazin-1-yl)-2-oxo-ethyl]amino]-1-oxo-isoindolin-2-yl]piperidine-2,6-dione], the IC50 was found to be 4.88 µM.

With `CC1CC(NC(=O)CNc2ccc3c(c2)C(=O)N(C2CCC(=O)NC2=O)C3)CCO1` (centres unmarked) [Compound C12695, 2-[[2-(2,6-dioxo-3-piperidyl)-3-oxo-isoindolin-5-yl]amino]-N-(2-methyltetrahydropyran-4-yl)acetamide], the IC50 amounted to 58 µM.

Turning to `O=C1Cc2ccccc2C(=O)N1` [Compound C15352, 4H-isoquinoline-1,3-dione], the IC50 was found to be 10.3 µM.

In the case of `O=C1c2ccccc2CC1n1ccc(=O)[nH]c1=O` (centres unmarked) [Compound C16899, 1-(1-oxoindan-2-yl)pyrimidine-2,4-dione], the IC50 is 10.4 µM.

`O=C1CCC(CN2C(=O)c3ccccc3C2=O)C(=O)N1` (centres unmarked) [Compound C23258, 2-[(2,6-dioxo-3-piperidyl)methyl]isoindoline-1,3-dione]: the IC50 is 14500 µM.

In the case of `O=C1CCC(N2C(=O)C3CCCCC3C2=O)C(=O)N1` (centres unmarked) [Compound C24191, 2-(2,6-dioxo-3-piperidyl)-3a,4,5,6,7,7a-hexahydroisoindole-1,3-dione], the IC50 is 17.7 µM.

With `Cc1cccc2c1C(=O)N(C1CCC(=O)NC1=O)C2` (centres unmarked) [Compound C28661, 3-(7-methyl-1-oxo-isoindolin-2-yl)piperidine-2,6-dione], the IC50 amounted to 0.654 µM.

For `COc1cccc2c1C(=O)N(C1CCC(=O)NC1=O)C2` (centres unmarked) [Compound C29137, 3-(7-methoxy-1-oxo-isoindolin-2-yl)piperidine-2,6-dione], the IC50 came to 0.304 µM.

As for `CC(=O)Nc1ccc2c(c1)C(=O)N(C1CCC(=O)NC1=O)C2` (centres unmarked) [Compound C29408, N-[2-(2,6-dioxo-3-piperidyl)-3-oxo-isoindolin-5-yl]acetamide], the IC50 stood at 4.92 µM.

Regarding `CC(=O)Nc1cccc2c1C(=O)N(C1CCC(=O)NC1=O)C2` (centres unmarked) [Compound C29457, N-[2-(2,6-dioxo-3-piperidyl)-3-oxo-isoindolin-4-yl]acetamide], the IC50 came out at 10.4 µM.

Consider `NC(=O)Nc1cccc2c1CN(C1CCC(=O)NC1=O)C2=O` (centres unmarked) [Compound C29490, [2-(2,6-dioxo-3-piperidyl)-1-oxo-isoindolin-4-yl]urea], for which the IC50 amounted to 8.86 µM.

On to `O=C1c2c(F)c(F)c(F)c(F)c2C(=O)N1c1ccc(F)cc1F` [Compound C34491, 2-(2,4-difluorophenyl)-4,5,6,7-tetrafluoro-isoindoline-1,3-dione], for which the IC50 was 16.1 µM.

Consider `Nc1cccc2c(=O)n(C3CCC(=O)NC3=O)nnc12` (centres unmarked) [Compound C35833, 3-(8-amino-4-oxo-1,2,3-benzotriazin-3-yl)piperidine-2,6-dione], for which the IC50 stood at 0.684 µM.

In the case of `O=C1CCc2cc(C(=O)N3CCc4cccnc43)cnc2N1` [Compound C36128, 6-(2,3-dihydropyrrolo[2,3-b]pyridine-1-carbonyl)-3,4-dihydro-1H-1,8-naphthyridin-2-obe], the IC50 worked out at 20.3 µM.

For `NC(=O)c1ccc2c(c1)C(=O)N(C1CCC(=O)NC1=O)C2` (centres unmarked) [Compound C39772, 2-(2,6-dioxo-3-piperidyl)-3-oxo-isoindoline-5-carboxamide], the IC50 turned out to be 13.8 µM.

For `O=C1CCC(Nc2cnc3ccccc3n2)C(=O)N1` (centres unmarked) [Compound C44292, 3-(quinoxalin-2-ylamino)piperidine-2,6-dione], the IC50 worked out at 8.32 µM.

For `O=C1CCC(N2Cc3ccc(C(F)(F)F)cc3C2=O)C(=O)N1` (centres unmarked) [Compound C45748, 3-[1-oxo-6-(trifluoromethyl)isoindolin-2-yl]piperidine-2,6-dione], the IC50 was 0.953 µM.

For the molecule `Nc1cccc2c1CCN(C1CCC(=O)NC1=O)C2=O` (centres unmarked) [Compound C47933, 3-(5-amino-1-oxo-3,4-dihydroisoquinolin-2-yl)piperidine-2,6-dione], the concentration for half-maximal inhibition (IC50) was 1.09 µM.

On to `O=C(O)CNc1ccc2c(c1)C(=O)N(C1CCC(=O)NC1=O)C2` (centres unmarked) [Compound C47997, 2-[[2-(2,6-dioxo-3-piperidyl)-3-oxo-isoindolin-5-yl]amino]acetic acid], for which the IC50 worked out at 9.1 µM.

Consider `N#Cc1cccc2c1C(=O)N(C1CCC(=O)NC1=O)C2` (centres unmarked) [Compound C48009, 2-(2,6-dioxo-3-piperidyl)-3-oxo-isoindoline-4-carbonitrile], for which the IC50 came to 2.18 µM.

Regarding `O=C1CCC(N2Cc3cccc(-c4ccccc4)c3C2=O)C(=O)N1` (centres unmarked) [Compound C48020, 3-(1-oxo-7-phenyl-isoindolin-2-yl)piperidine-2,6-dione], the IC50 was 0.546 µM.

On to `O=C1N=CC(N2C(=O)c3ccccc3C2=O)C(=O)N1` (centres unmarked) [Compound C49278, 2-(2,6-dioxo-5H-pyrimidin-5-yl)isoindoline-1,3-dione], for which the IC50 was 45.4 µM.

With `CN(C)CC(=O)Nc1ccc2c(c1)C(=O)N(C1CCC(=O)NC1=O)C2` (centres unmarked) [Compound C49708, 2-(dimethylamino)-N-[2-(2,6-dioxo-3-piperidyl)-3-oxo-isoindolin-5-yl]acetamide], the IC50 is 0.752 µM.

In the case of `O=C1CCC(N2C(=O)c3ccccc3C2C2=c3ccccc3=NC2)C(=O)N1` (centres unmarked) [Compound C49713, 3-[1-(2H-indol-3-yl)-3-oxo-isoindolin-2-yl]piperidine-2,6-dione], the IC50 stood at 6.74 µM.

On to `O=C1CCC(Nc2ncccn2)C(=O)N1` (centres unmarked) [Compound C55468, 3-(pyrimidin-2-ylamino)piperidine-2,6-dione], for which the IC50 came to 8.68 µM.

On to `COC1c2ccccc2C(=O)N1C1CCC(=O)NC1=O` (centres unmarked) [Compound C56572, 3-(1-methoxy-3-oxo-isoindolin-2-yl)piperidine-2,6-dione], for which the IC50 amounted to 8.61 µM.

For `O=C1CCC(N2C(=O)C=C(c3ccccc3)C2=O)C(=O)N1` (centres unmarked) [Compound C64319, 3-(2,5-dioxo-3-phenyl-pyrrol-1-yl)piperidine-2,6-dione], the IC50 stood at 42.9 µM.

As to `O=C1CCC(N2C(=O)CC3(Cc4ccccc4C3)C2=O)C(=O)N1` (centres unmarked) [Compound C64329, 1′-(2,6-dioxo-3-piperidyl)spiro[indane-2,3′-pyrrolidine]-2′,5′-dione], the IC50 was found to be 15.1 µM.

On to `O=C1CCC(N2C(=O)CC3(CCOCC3)C2=O)C(=O)N1` (centres unmarked) [Compound C64348, 2-(2,6-dioxo-3-piperidyl)-8-oxa-2-azaspiro[4.5]decane-1,3-dione], for which the IC50 amounted to 12.9 µM.

On to `Cc1nc(N(C)C)cc2c1C(=O)N(C1CCC(=O)NC1=O)C2=O` (centres unmarked) [Compound C64376, 6-(dimethylamino)-2-(2,6-dioxo-3-piperidyl)-4-methyl-pyrrolo[3,4-c]pyridine-1,3-dione], for which the IC50 amounted to 3.95 µM.

As to `NCc1ccc2c(c1)C(=O)N(C1CCC(=O)NC1=O)C2` (centres unmarked) [Compound C66979, 3-[6-(aminomethyl)-1-oxo-isoindolin-2-yl]piperidine-2,6-dione], the IC50 came to 0.633 µM.

Turning to `O=C1CC/C(=C/c2ccccc2)C(=O)N1` [Compound C68121, (3Z)-3-benzylidenepiperidine-2,6-dione], the IC50 turned out to be 6.5 µM.

`Cc1cccc2c1C(=O)N(C1CCC(=O)NC1=O)S2(=O)=O` (centres unmarked) [Compound C73349, 3-(4-methyl-1,1,3-trioxo-1,2-benzothiazol-2-yl)piperidine-2,6-dione]: the IC50 came to 4.95 µM.
